The values below come from PubChem BioAssay AID2253 (Southern Research Specialized Biocontainment Screening …, 2010).

The assay has as its system THP-1 viability, CellTiter-Glo luminescence, 72 h. Description: THP-1 cell cytotoxicity, dose response, cytotoxicity control for Salmonella PhoP regulon inhibitors, S. typhimurium screen hits (AID 2253).
`COc1ccc(-c2cn[nH]c2-c2ccc(OCc3ccc([N+](=O)[O-])cc3)cc2O)cc1`: the EC50 is 15.1 µM. To `Cc1cc(C(=O)N/N=C/c2ccc(O)c(O)c2O)c(C)n1-c1ccccc1` belongs 4.48 µM; to `O=C(NCCNc1ccc([N+](=O)[O-])cc1C(F)(F)F)c1ccc(F)cc1`, 43.7 µM; to `C/C(=N\Nc1ncnc2sc(C)c(C)c12)c1ccccn1`, less than 0.1 µM. To `CCCCCNCC(=O)Nc1cccc(C(=O)Nc2cccc(C(F)(F)F)c2)c1` belongs 12.4 µM; to `Cc1ccccc1OCCCCCn1ccnc1`, 24.4 µM; to `O=C(N/N=C/c1cc([N+](=O)[O-])ccc1O)C1CC1`, 26 µM.

Consider `O=C1NC(=S)S/C1=C\C=C\c1ccc([N+](=O)[O-])o1`, for which the EC50 was 9.07 µM.

As for `OCc1ccc(O)c2ncccc12`, the concentration for a half-maximal effect (EC50) was 3.26 µM. To `CCCCCCCCCn1c2c(c(=N)c3c1CCC3)CCCC2` belongs 0.37 µM.

For `O=C(N/N=C/c1ccc(Sc2ccccn2)o1)c1cc2ccccc2cc1O`, the EC50 was 35.4 µM. To `Cc1ccc(Nc2cc(C)c3ccc(O)cc3n2)cc1C` belongs 17 µM; to `NCCCC[C@H]1CN=C(N)N1CCC12CC3CC(CC(C3)C1)C2`, 33.1 µM.

As for `O=C(N/N=C/c1ccc(O)cc1O)/C(=C/c1ccccc1)CCO`, the EC50 is 4.05 µM. With `Oc1cccc(/C=N/NC(=S)Nc2cccnc2)c1O` the figure was 4.11 µM; with `CCCCCCCNC(=O)C1(CC2CC(c3cccc(Br)c3)=NO2)CCNCC1` (stereo not given), 4.13 µM. As to `CC(=O)NC(c1ccc2ccccc2c1)c1ccc2cccnc2c1O` (stereo not given), the EC50 was 0.24 µM. With `O=S(=O)(c1ccccc1)N(CC(O)Cn1c2ccccc2c2ccccc21)c1ccccc1` (stereo not given) the figure was 11.1 µM. To `CNC[C@H](CC1CCCCC1)NC[C@H](Cc1ccccc1)NCCC12CC3CC(CC(C3)C1)C2` belongs 3.28 µM; to `Oc1ccc(N=Cc2ccc(O)c(O)c2)cc1`, 7.64 µM; to `CCc1nn2cc(C(=O)c3cc(Cl)ccc3O)cnc2c1-c1ccc(F)cc1`, 38.3 µM. With `CCOC(=O)c1ccc(-c2ccc(C3Nc4ccccc4C(=O)N3O)o2)cc1` (stereo not given) the figure was 9.38 µM; with `COc1ccc(C)cc1NC(=O)C(Sc1nnc(-c2ccncc2)n1-c1ccc(Cl)cc1)c1ccccc1` (stereo not given), 22 µM.

Take `Cc1nc(N)nc(N)c1/C=C/C(C)(C)c1ccc(Cl)cc1`: the EC50 was less than 0.1 µM.

With `CCCCNCCCOc1cccc(Cl)c1Cl`, the EC50 was 29.2 µM. With `Cc1cc(C)cc(CC(Cc2nc3ccccc3[nH]2)c2nc3ccccc3[nH]2)c1` (stereo not given) the figure was 11.8 µM. With `CCCCCN=C(N)N/N=C/c1c[nH]c2ccc(OC)cc12` the figure was 1.58 µM. To `C[C@H]1c2cccc(O)c2C(O)=C2C(=O)C3(O)C(O)=C(C(N)=O)C(=O)[C@@H](N(C)C)[C@@H]3[C@@H](O)[C@@H]21` (stereo not given in full) belongs 34.4 µM. In the case of `Cc1cc(N/N=C/c2cccc(Cl)c2)nc(NCc2ccccc2)n1`, the EC50 is 23.5 µM. With `CCCCCCCCCCOC(=O)Cn1c(COc2ccc(Cl)cc2)[n+](C)c2ccccc21` the figure was 2.05 µM. To `Cc1cc(C2=NNC(=NC3CC3)SC2)c(C)n1Cc1ccco1` belongs 5.69 µM. With `O=C(O)CSc1cc(NS(=O)(=O)c2cccc([N+](=O)[O-])c2)c2ccccc2c1O` the figure was 8.07 µM; with `CCCCCCCCCCCCCCCCn1cc[n+](C)c1`, 0.37 µM; with `Clc1ccc(Nc2ncnc3c2cnn3-c2ccccc2)cc1`, 30.1 µM.

As to `Cc1ccc(C=Nc2ccccc2C(N)=O)s1`, the EC50 was 10.8 µM. With `N=C(N)SCc1cn(-c2ccccc2)nc1-c1ccc(Br)cc1` the figure was 4.83 µM; with `COc1ccc(C(C[N+](=O)[O-])c2c(-c3ccccc3)cc3ccccn23)cc1` (stereo not given), 12.8 µM; with `COc1ccc(OCc2n(CC(=O)OC3CC(C)CCC3C(C)C)c3ccccc3[n+]2C)cc1` (stereo not given), 1.6 µM. Regarding `Cc1c2ccncc2c(C)c2c1[nH]c1ccccc12`, the EC50 was 2.53 µM. With `COc1cccc(Nc2nc(-c3sc(NC(=O)c4ccco4)nc3C)cs2)c1` the figure was 40.5 µM; with `O=C1c2ccccc2NC(c2ccc(-c3cccc(Cl)c3)o2)N1O` (stereo not given), 24.6 µM; with `Cc1nc2c(C(=O)NCCC(C)C)c[nH]n2c(=O)c1Cc1ccccc1F`, 30.7 µM.

With `CCCCOc1ccc(S(=O)(=O)NNC(=O)C2Cc3c(ccc4ccccc34)O2)cc1` (stereo not given), the EC50 is 42.6 µM. To `N/C(=N/OC(=O)c1ccccc1Cl)c1ncc([N+](=O)[O-])s1` belongs 18.8 µM.

For the compound `CC(C)c1ccc(C2C3CSCC=C3C(C#N)=C(N)C2(C#N)C#N)cc1` (stereo not given), the EC50 is 39.7 µM.

With `Cc1ccc([N+](=O)[O-])cc1-c1ccc(/C=C(\C#N)c2[nH]nc(N)c2C#N)o1`, the EC50 was 5.93 µM.

In the case of `O=c1c(Cl)c(Cl)cnn1-c1ccccc1`, the EC50 is 1.41 µM.

For the compound `O=C(NCCNc1ccc([N+](=O)[O-])cc1C(F)(F)F)c1cccc(F)c1`, the EC50 is 47.5 µM. With `Cc1ccc(S(=O)(=O)c2c(C(=O)c3ccccc3)cnc3cc4c(cc23)OCCO4)cc1` the figure was 30.2 µM; with `OCCN1CCN(Cc2cc(Cl)c3cccnc3c2O)CC1`, 12 µM. Consider `c1ccc2c(NC3=NCCS3)cccc2c1`, for which the EC50 is 31.8 µM. To `Oc1ccc(N2CCN(Cc3ccc(OCCCN4CCCCC4)cc3)CC2)cc1` belongs 29.5 µM; to `O=C(N/N=C/c1ccc(F)cc1)c1cc(-c2ccco2)nc2ccccc12`, 37.9 µM; to `Oc1ccc(/C=N/NC(=S)Nc2cccnc2)c(O)c1`, 3.21 µM.

Consider `O=C(N/N=C/c1c[nH]c2ccccc12)c1cc(-c2ccc3ccccc3c2)n[nH]1`, for which the EC50 is 3.02 µM. To `COc1ccc(O)c(/C=c2/sc3nc4cc(C)c(C)cc4n3c2=O)c1` belongs 34.1 µM; to `O=c1cc2oc3cc(O)c(O)cc3c(-c3ccccc3[N+](=O)[O-])c-2cc1O`, 10.5 µM; to `C#CCOc1ccc(/C=C2\SC(=S)N(Cc3cccnc3)C2=O)cc1`, 5.67 µM. To `Cc1cc(C)nc(/N=C(\N)Nc2ccc(SC(F)F)cc2)n1` belongs 13.1 µM; to `CC(=O)Nc1cc(N=Cc2ccc(O)cc2O)c(Cl)cc1Cl`, 45.3 µM; to `c1ccc(Nc2cc(Nc3ccccc3)[nH]n2)cc1`, 23.7 µM. With `COc1cc(C(=O)Oc2c(CN3CCOCC3)cc(Cl)c3cccnc23)cc(OC)c1OC` the figure was 4.46 µM; with `CC1(C)CC(=O)C2=C(C1)N(c1ccc(F)cc1)C(N)=C(C#N)C2c1cccs1` (stereo not given), 35.6 µM; with `CCCCCCC(=O)N(O)C1CC(=O)N(c2ccc(C)cc2)C1=O` (stereo not given), 30.6 µM.

For the compound `O=C(N/N=C/c1cc2c3c(c1O)CCCN3CCC2)c1ccccc1O`, the EC50 is 3.56 µM. To `C=CCN(C(=O)c1cccc(S(=O)(=O)N2CCN(C)CC2)c1)c1nc(-c2ccccc2)cs1` belongs 49.4 µM. With `O=C(CN1CCCc2ccccc21)N/N=C/c1c(O)ccc2ccccc12` the figure was 3.11 µM; with `Brc1cccc(CNc2nc3ccccc3n2CCN2CCCCC2)c1`, 26.3 µM. To `Cc1ccc(Nc2cc(C)nn2-c2nc(C)cc(=O)[nH]2)cc1` belongs 0.62 µM. For the compound `COc1cc([N+](=O)[O-])cc(/C=N/NC(=O)c2cccnc2)c1O`, the EC50 was 32 µM. With `CN(c1ccccc1)S(=O)(=O)c1cc(C(=O)Nc2nc3ccccc3[nH]2)ccc1Cl` the figure was 24.1 µM; with `N=c1n(CC(=O)c2ccc(Br)s2)c2ccccc2n1Cc1ccccc1`, 7.56 µM.

Consider `NCC12CC3CC(C1)CC(c1ccc(Br)cc1)(C3)C2`, for which the EC50 was 8.36 µM. To `O=S1(=O)Nc2c(ccc3cccnc23)-c2ccccc21` belongs 0.69 µM; to `O=[N+]([O-])c1cc(/C=N/Nc2nc3ccccc3[nH]2)c(O)cc1O`, 1.21 µM. To `Cc1cccc(NC(=O)Cn2c(/C=C/c3ccccc3)nc3ccccc32)c1` belongs 45 µM; to `Nc1nonc1C(=O)N/N=C/c1cc(Br)ccc1O`, 3.12 µM. With `C=CCNc1ncnc2c1[nH]c1ccccc12` the figure was 46 µM; with `O=C1c2ccccc2C(=O)c2[nH]c(=O)[nH]c21`, 4.83 µM.

With `Cc1ccc(C(C[N+](=O)[O-])c2c(N)n(C)c(=O)n(C)c2=O)cc1` (stereo not given), the EC50 is 34.2 µM. To `S=C(NCc1cccnc1)Nc1ccc(Cl)c(Cl)c1` belongs 40 µM. With `COc1ccc(Nc2cc(C)c3c(O)cccc3n2)cc1` the figure was 15 µM; with `O=C(CSc1ccccn1)N/N=C/c1cc([N+](=O)[O-])ccc1O`, 17.1 µM; with `CCOC(=O)C1=Nc2ccccc2C1=[N+]=[N-]`, 27.2 µM.

For the compound `Cc1nc2c(=O)n(C)c(=O)nc-2n(C)n1`, the EC50 was 1.22 µM. For the compound `O=C(N/N=C/c1ccc([N+](=O)[O-])o1)c1ccc(O)cc1`, the EC50 is 12 µM. With `Oc1ccc(CN2CCN(Cc3ccccc3)CC2)c2cccnc12` the figure was 12.9 µM; with `Oc1ccccc1Nc1nc(NCc2ccco2)c2ccccc2n1`, 13.2 µM; with `Cc1c(C)n(Cc2ccccc2)c2ncnc(NN)c12`, 23.4 µM. To `CN(C)c1ccc(/C=C/c2ccc3c4ccccc4ccc3[n+]2-c2ccccc2)cc1` belongs 0.26 µM; to `CCN(CC)S(=O)(=O)c1cccc(NC(=O)Nc2cccc(C(F)(F)F)c2)c1`, 5.09 µM. To `Cc1cc(-c2nnc(-c3ccccc3)c(-c3ccccc3)n2)c(C)o1` belongs 40.3 µM; to `Cc1ccccc1OCCSCc1nc2ccccc2[nH]1`, 30.4 µM. Regarding `COc1ccc(C(=O)N/N=C/c2sc3ccccc3c2O)cc1`, the 50% effective concentration (EC50) is 3.13 µM.

In the case of `CCCc1cc(-c2nc(N)ncc2-c2ccc3c(c2)OCCCO3)c(O)cc1OC`, the EC50 is 19.9 µM. Regarding `FC(F)(F)c1ccc2c(c1)N(CCCN1CCN(CCCl)CC1)c1ccccc1S2`, the EC50 was 20.6 µM. In the case of `CCN(CC)CCOc1ccc2c(c1)C(=NNC(=O)c1ccccn1)c1cc(OCCN(CC)CC)ccc1-2`, the EC50 was 3.57 µM. With `CCOC(=O)COc1ccccc1/C=C\[N+](=O)[O-]` the figure was 2.85 µM; with `O=C1c2ccccc2C2=Nc3ccccc3SC(c3cccc(F)c3)C12` (stereo not given), 8.95 µM; with `O=Nc1ccc(O)c2ncccc12`, 1.77 µM.
